This note sets out measurements from article PMC9980389, “Structural and biochemical insights into PsEst3, a new GHSR-type esterase obtained from Paenibacillus sp. R4” (IUCrJ, 2023).

Assay [1] addresses T1, PsEst3 (Paenibacillus sp. R4, UniProt Z9AKP1HDK8).
T1 construct: pET-22b in E. coli BL21(DE3)/pPsyGroELS, 6xHis tag kept (Ni-NTA, SEC); residues 4-258 built, including part of the His tag
T1 sequence (Z9AKP1HDK8 1-257): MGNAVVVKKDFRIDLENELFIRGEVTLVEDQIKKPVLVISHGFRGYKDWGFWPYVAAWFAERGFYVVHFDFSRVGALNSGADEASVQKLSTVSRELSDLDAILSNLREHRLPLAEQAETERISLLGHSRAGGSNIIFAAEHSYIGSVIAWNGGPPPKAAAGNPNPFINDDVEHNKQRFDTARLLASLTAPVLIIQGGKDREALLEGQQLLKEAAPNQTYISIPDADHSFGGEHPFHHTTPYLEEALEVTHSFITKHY
As to the kind of experiment: fluorescein diester hydrolysis, fluorescence […] nm. In kind it is biochemical. As to conditions: 20 mM Tris-HCl pH 8.0, 150 mM NaCl, 30 °C, 0.1 µM substrate, 10% 2-ethoxyethanol, 0.005% CHAPS.

The target in assay [2] is T1, PsEst3. The experiment in a line: inhibition of pNP-C2 hydrolysis, absorbance […] nm. The format is biochemical. As to conditions: substrate pNP-C2.

Take `CCCC(=O)Oc1ccc2c(c1)Oc1cc(OC(=O)CCC)ccc1C21OC(=O)c2ccccc21` [fluorescein-diC4, fluorescein dibutyrate]: the “fluorescein diester hydrolysis, fluorescence 492/512 nm” value on PsEst3 [1] is “fluorescein diesters (fluorescein-diC4, fluorescein-diC8 and fluorescein-diC12) were measured”.
Turning to `O=C(O)/C=C\C(=O)O` [maleic acid], the “% decrease in activity at 2.4 mM” value on PsEst3 [2] is reported as ~ 40%.
